Experimental data reported in patent US20110177105A1, “Novel Selective Inhibitors of Ubiquitin Specific Protease 7, the Pharmaceutical Compositions Thereof and Their Therapeutic Applications” (priority 2010, published 2011).

Biological target: USP7 (Homo sapiens, UniProt Q93009)
Assay: HA-Ub-VS labeling of active DUBs in HCT116 cell lysates
Type: biochemical
Design: endogenous in cells; host or cells: HCT116 (inducible USP7 shRNA line) cell lysate
Details: NEM 5 mM
From the text: The C-terminally modified vinyl sulfone derivative of ubiquitin, UbVS, was clearly helpful for a direct visualization of active DUBs in cells. This tool, which binds covalently to the cysteine active site of deubiquitinating enzymes, was successfully applied to discover and characterize novel ubiquitin/ubiquitin-like proteases and to profile active deubiquitinating enzymes in normal, virus-infected, and malignant cells (Borodovsky et al., Chem Biol 2002, 9, 1149-1159, Hemelaar et al., Mol Cell Biol 2004, 24, 84-95, Ovaa et al., Proc Natl Acad Sci USA 2004 101, 2253-2258).
The HA-Ub-VS probe (Hemagglutin tag-Ubiquitin-Vinyl Sulfone) was used in this study to directly visualize the activity of all deubiquitinating enzymes from cell lysates. This tool was used to evaluate the activity/specificity of our small molecule compounds on USP7 relative to all deubiquitinating enzymes active in physiological conditions.
Inducible USP7 shRNA HCT116 cells (previously treated with or without Doxycycline (2 μg/ml) for 4 days) as well as HEK293 cells were harvested and lysed on ice with a non denaturating buffer containing Tris pH 7.4, 50 mM; NaCl, 150 mM; MgCl2, 5 mM; EDTA, 0.5 mM; DTT, 2 mM; ATP, 2 mM; NP40, 0.5% and glycerol, 10%. Samples were incubated at 4° C. for 1 hour and clarified. Proteins were then quantified by Bradford method (Bio-Rad Protein Assay). 25 μg of proteins from native cell lysates were treated with compounds of examples 14 and 5 (from 100 μM to 3 μM) or with NEM (N-Ethylmaleimide, a thiol-reactive compound, 5 mM) for 2 hours at room temperature. The ubiquitin labeling reaction was initiated by the addition of HA-Ub-VS (8 μg/ml) in labeling buffer (Tris pH 7.6, 50 mM; MgCl2, 5 mM; EDTA, 0.5 mM; DTT, 2 mM; ATP, 2 mM; sucrose, 250 mM) and incubated at room temperature for 30 min. Samples were next heated at 100° C. for 10 minutes and briefly sonicated. They were resolved by SDS-polyacrylamide gel electrophoresis (SDS-PAGE), transferred to a nitrocellulose membrane and probed with antibodies against USP7 (Bethyl Lab, A300-034A), HA (BabCO, MMS-101P), and actin (Sigma, A2066). Horseradish peroxidase (HRP)-conjugated anti-mouse (Jackson Laboratories, 115-035-003) or HRP-conjugated anti-rabbit (Cell Signaling, 7074) antibodies were used as secondary antibodies. Signals were detected by enhanced chemiluminescence (ECL; Amersham) according to the reagent manufacturer's instructions.

Sequence of USP7 (Q93009 whole entry): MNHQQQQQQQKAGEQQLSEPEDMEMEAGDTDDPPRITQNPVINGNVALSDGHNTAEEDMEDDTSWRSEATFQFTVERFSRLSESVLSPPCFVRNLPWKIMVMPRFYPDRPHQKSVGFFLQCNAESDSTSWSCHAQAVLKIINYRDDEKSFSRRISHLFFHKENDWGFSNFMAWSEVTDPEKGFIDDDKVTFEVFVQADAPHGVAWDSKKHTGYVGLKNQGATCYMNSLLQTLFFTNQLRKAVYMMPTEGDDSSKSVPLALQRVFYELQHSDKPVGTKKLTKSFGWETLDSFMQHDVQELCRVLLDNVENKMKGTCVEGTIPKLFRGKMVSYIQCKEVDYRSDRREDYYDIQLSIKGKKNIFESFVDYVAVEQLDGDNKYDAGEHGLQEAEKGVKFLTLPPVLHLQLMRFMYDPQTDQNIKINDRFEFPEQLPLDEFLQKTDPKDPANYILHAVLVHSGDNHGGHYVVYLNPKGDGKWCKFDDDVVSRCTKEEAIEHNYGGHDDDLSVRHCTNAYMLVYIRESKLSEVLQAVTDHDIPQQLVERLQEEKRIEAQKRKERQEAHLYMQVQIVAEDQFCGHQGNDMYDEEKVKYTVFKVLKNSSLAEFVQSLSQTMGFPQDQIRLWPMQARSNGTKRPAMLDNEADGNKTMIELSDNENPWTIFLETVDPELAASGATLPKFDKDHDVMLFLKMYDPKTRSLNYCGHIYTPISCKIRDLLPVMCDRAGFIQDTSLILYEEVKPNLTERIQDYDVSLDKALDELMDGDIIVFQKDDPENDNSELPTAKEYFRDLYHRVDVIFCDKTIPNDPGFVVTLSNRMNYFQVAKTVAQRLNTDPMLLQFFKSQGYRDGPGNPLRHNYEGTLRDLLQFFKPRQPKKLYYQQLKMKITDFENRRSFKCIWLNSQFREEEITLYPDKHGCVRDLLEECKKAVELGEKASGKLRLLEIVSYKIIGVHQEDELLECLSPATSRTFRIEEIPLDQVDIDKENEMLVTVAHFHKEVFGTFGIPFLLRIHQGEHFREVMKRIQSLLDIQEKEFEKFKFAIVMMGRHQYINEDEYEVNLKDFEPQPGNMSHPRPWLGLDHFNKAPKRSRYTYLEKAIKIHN

CCN1C(=O)C=CC1=O [NEM, N-Ethylmaleimide, reference compound]
HA-Ub-VS labeling of active DUBs: inhibited
